In patent US8895745B2, “Bicyclic heterocyclic compounds as FGFR inhibitors” (Astex Therapeutics Limited, priority 2006, dated 2014):
Counter-ions that a name gives are not always drawn.

tested on: LP-1 cell line; experiment: Cell-based pERK ELISA method, LP-1 cells; conditions: Homo sapiens, LP-1, read-out: IC50 less than 1 μM or at least 50% inhibition at a concentration of 1 μM, LP-1 pERK ELISA

Compound | IC50
O=C(NCC(F)(F)F)Nc1cccc(-c2cnc3cc(-c4ccc(C5CNCCN5)cc4)ccn23)c1 (stereo not shown) [Example 296, 1-{3-[7-(4-Piperazin-2-yl-phenyl)-imidazo[1,2-a]pyridin-3-yl]-phenyl}-3-(2,2,2-trifluoro-ethyl)-urea hydrochloride] | < 1 µM
CCNC(=O)Nc1cccc(-c2cnc3cc(-c4ccc(N5CCOCC5)nc4)ccn23)c1 [Example 49, 1-Ethyl-3-{3-[7-(6-morpholin-4-yl-pyridin-3-yl)-imidazo[1,2-a]pyridin-3-yl]-phenyl}-urea formate salt] | < 1 µM
Cc1nc(-c2ccn3c(-c4cccc(NC(=O)NCC(F)(F)F)c4)cnc3c2)cs1 [Example 348, 1-{3-[7-(2-Methyl-thiazol-4-yl)-imidazo[1,2-a]pyridin-3-yl]-phenyl}-3-(2,2,2-trifluoro-ethyl)-urea] | < 1 µM
O=C(NCC(F)(F)F)Nc1cccc(-c2cnc3cc(-c4cnco4)ccn23)c1 [Example 240, 1-[3-(7-Oxazol-5-yl-imidazo[1,2-a]pyridin-3-yl)-phenyl]-3-(2,2,2-trifluoro-ethyl)-urea] | < 1 µM
O=C(NCCF)Nc1cccc(-c2cnc3cc(-c4ccc(F)cc4)ccn23)c1 [Example 134, 1-(2-Fluoro-ethyl)-3-{3-[7-(4-fluoro-phenyl)-imidazo[1,2-a]pyridin-3-yl]-phenyl}-urea Hydrochloride] | < 1 µM
NCC(=O)Nc1cccc(-c2cnc3cc(-c4ccc(F)cc4)ccn23)c1 [Example 67, 2-Amino-N-{3-[7-(4-fluoro-phenyl)-imidazo[1,2-a]pyridin-3-yl]-phenyl}-acetamide formate salt] | < 1 µM
CCNC(=O)Nc1cccc(-c2cnc3cc(-c4cccc(OCCOC)c4)ccn23)c1 [Example 83, 1-Ethyl-3-(3-{7-[3-(2-methoxy-ethoxy)-phenyl]-imidazo[1,2-a]pyridin-3-yl}-phenyl)-urea] | < 1 µM
O=C(NCC(F)(F)F)Nc1cccc(-c2cnc3cc(-c4ccc5c(c4)OCO5)ccn23)c1 [Example 141, Hydrochloride] | < 1 µM
COCCNC(=O)c1cccc(-c2ccn3c(-c4cccc(NC(=O)NCC(F)(F)F)c4)cnc3c2)c1 [Example 263, N-(2-Methoxy-ethyl)-3-(3-{3-[3-(2,2,2-trifluoro-ethyl)-ureido]-phenyl}-imidazo[1,2-a]pyridin-7-yl)-benzamide] | < 1 µM
O=C(NCC(F)(F)F)Nc1cccc(-c2cnn3cc(-c4cccc(CN5CCOCC5)c4)cnc23)c1 [Example 189, 1-{3-[6-(3-Morpholin-4-ylmethyl-phenyl)-pyrazolo[1,5-a]pyrimidin-3-yl]-phenyl}-3-(2,2,2-trifluoro-ethyl)-urea Hydrochloride] | < 1 µM
COc1cc(NC(C)=O)cc(-c2cnc3cc(-c4cccc(CN5CCOCC5)c4)ccn23)c1 [Example 78, N-{3-Methoxy-5-[7-(3-morpholin-4-ylmethyl-phenyl)-imidazo[1,2-a]pyridin-3-yl]-phenyl}-acetamide] | < 1 µM
CCNC(=O)Nc1cccc(-c2cnc3cc(-c4ccc(CN5CCC5)cc4)ccn23)c1 [Example 82, 1-{3-[7-(4-Azetidin-1-ylmethyl-phenyl)-imidazo[1,2-a]pyridin-3-yl]-phenyl}-3-ethyl-urea] | < 1 µM

same assay, conditions: Homo sapiens, LP-1, read-out: LP-1 pERK ELISA (μM)

Compound | IC50
O=C(NCC(F)(F)F)Nc1cccc(-c2cnc3cc(-c4ccc(F)cc4)ccn23)c1 [Example 59, 1-{3-[7-(4-fluoro-phenyl)-imidazo[1,2-a]pyridin-3-yl]-phenyl}-3-(2,2,2-trifluoro-ethyl)-urea] | 0.0021 µM
